Results taken from PubChem BioAssay AID2060614 (Molecular Pharmacology Branch, DTP, NCI, 2025).
pIC50: −log10 of the molar value.

System: 598228-144-R-J1-PDC complex spheroids, viability
Experiment: Anticancer human tumor 598228-144-R-J1-PDC patient-derived serous endometrial adenocarcinoma cell line growth inhibition [CLK]
Conditions: for pIC50: curve of first compound; for viability, T/C: stronger effect = lower value
Outline: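 Multi-cell-type spheroids combined patient-derived tumor cells with HUVEC endothelial cells and human mesenchymal stem cells. Paired agents were dosed in half-log steps down from about clinical Cmax, or from 10 microM where Cmax was unknown.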
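Further: spheroids exposed to compounds for seven days before readout.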
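Wherever viability, T/C is given: 100% = DMSO vehicle control wells.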

`COc1ccc([C@@H](O)c2cc(-c3ncnc4cc(N5CCOCC5)ccc34)c(F)cc2Cl)nn1` + CN1CCN(c2cc(C(=O)Nc3cc4cc(-c5cnn(C)c5)ccc4cn3)ccn2)CC1 was tested, and the pIC50 (second compound 0.0316 µM) was 5.08, the pIC50 (second compound 0.1 µM) was 5.27 and the pIC50 (second compound 0.316 µM) was > 7.50. For the same molecule, the pIC50 (second compound 1 µM) was > 7.50, the pIC50 (second compound 3.16 µM) was > 7.50 and the pIC50 (second compound 10 µM) was > 7.50. For the same molecule, the viability, T/C (second compound 0.0316 µM, first compound 0.0316 µM) was 122%, the viability, T/C (second compound 0.0316 µM, first compound 0.1 µM) was 123% and the viability, T/C (second compound 0.0316 µM, first compound 0.316 µM) was 105%. For the same molecule, the viability, T/C (second compound 0.0316 µM, first compound 1 µM) was 92.7%, the viability, T/C (second compound 0.0316 µM, first compound 3.16 µM) was 65.3% and the viability, T/C (second compound 0.0316 µM, first compound 10 µM) was 47.4%. The viability, T/C (second compound 0.1 µM, first compound 0.0316 µM) was 123%, the viability, T/C (second compound 0.1 µM, first compound 0.1 µM) was 123% and the viability, T/C (second compound 0.1 µM, first compound 0.316 µM) was 89%. For the same molecule, the viability, T/C (second compound 0.1 µM, first compound 1 µM) was 88.8%, the viability, T/C (second compound 0.1 µM, first compound 3.16 µM) was 59.5% and the viability, T/C (second compound 0.1 µM, first compound 10 µM) was 36.8%. For the same molecule, the viability, T/C (second compound 0.316 µM, first compound 0.0316 µM) was 15.2%, the viability, T/C (second compound 0.316 µM, first compound 0.1 µM) was 15.1% and the viability, T/C (second compound 0.316 µM, first compound 0.316 µM) was 15.9%. It also gave a viability, T/C (second compound 0.316 µM, first compound 1 µM) of 9.86%, a viability, T/C (second compound 0.316 µM, first compound 3.16 µM) of 7.76% and a viability, T/C (second compound 0.316 µM, first compound 10 µM) of 5.23%. It also gave a viability, T/C (second compound 1 µM, first compound 0.0316 µM) of 1.49%, a viability, T/C (second compound 1 µM, first compound 0.1 µM) of 1.33% and a viability, T/C (second compound 1 µM, first compound 0.316 µM) of 1.57%. The viability, T/C (second compound 1 µM, first compound 1 µM) was 1.3%, the viability, T/C (second compound 1 µM, first compound 3.16 µM) was 1.12% and the viability, T/C (second compound 1 µM, first compound 10 µM) was 3.63%. For the same molecule, the viability, T/C (second compound 3.16 µM, first compound 0.0316 µM) was 1.56%, the viability, T/C (second compound 3.16 µM, first compound 0.1 µM) was 2.15% and the viability, T/C (second compound 3.16 µM, first compound 0.316 µM) was 1.78%. It also gave a viability, T/C (second compound 3.16 µM, first compound 1 µM) of 2.12%, a viability, T/C (second compound 3.16 µM, first compound 3.16 µM) of 1.65% and a viability, T/C (second compound 3.16 µM, first compound 10 µM) of 2.04%. The viability, T/C (second compound 10 µM, first compound 0.0316 µM) was 0.95%, the viability, T/C (second compound 10 µM, first compound 0.1 µM) was 0.79% and the viability, T/C (second compound 10 µM, first compound 0.316 µM) was 4.21%. For the same molecule, the viability, T/C (second compound 10 µM, first compound 1 µM) was 1.31%, the viability, T/C (second compound 10 µM, first compound 3.16 µM) was 3.59% and the viability, T/C (second compound 10 µM, first compound 10 µM) was 3.19%.
